Experiments:
rNaV1.4 [1] = target: rNaV1.4 (Rattus norvegicus, UniProt P15390, F1579A); assay: whole-cell patch clamp, three pulse train; assay type: cell-based
rNaV1.4 [2] = target: rNaV1.4 (Rattus norvegicus, UniProt P15390); assay: whole-cell patch clamp, three pulse train; assay type: cell-based
Sequence of rNaV1.4 (Rattus norvegicus, UniProt P15390) (P15390 whole entry): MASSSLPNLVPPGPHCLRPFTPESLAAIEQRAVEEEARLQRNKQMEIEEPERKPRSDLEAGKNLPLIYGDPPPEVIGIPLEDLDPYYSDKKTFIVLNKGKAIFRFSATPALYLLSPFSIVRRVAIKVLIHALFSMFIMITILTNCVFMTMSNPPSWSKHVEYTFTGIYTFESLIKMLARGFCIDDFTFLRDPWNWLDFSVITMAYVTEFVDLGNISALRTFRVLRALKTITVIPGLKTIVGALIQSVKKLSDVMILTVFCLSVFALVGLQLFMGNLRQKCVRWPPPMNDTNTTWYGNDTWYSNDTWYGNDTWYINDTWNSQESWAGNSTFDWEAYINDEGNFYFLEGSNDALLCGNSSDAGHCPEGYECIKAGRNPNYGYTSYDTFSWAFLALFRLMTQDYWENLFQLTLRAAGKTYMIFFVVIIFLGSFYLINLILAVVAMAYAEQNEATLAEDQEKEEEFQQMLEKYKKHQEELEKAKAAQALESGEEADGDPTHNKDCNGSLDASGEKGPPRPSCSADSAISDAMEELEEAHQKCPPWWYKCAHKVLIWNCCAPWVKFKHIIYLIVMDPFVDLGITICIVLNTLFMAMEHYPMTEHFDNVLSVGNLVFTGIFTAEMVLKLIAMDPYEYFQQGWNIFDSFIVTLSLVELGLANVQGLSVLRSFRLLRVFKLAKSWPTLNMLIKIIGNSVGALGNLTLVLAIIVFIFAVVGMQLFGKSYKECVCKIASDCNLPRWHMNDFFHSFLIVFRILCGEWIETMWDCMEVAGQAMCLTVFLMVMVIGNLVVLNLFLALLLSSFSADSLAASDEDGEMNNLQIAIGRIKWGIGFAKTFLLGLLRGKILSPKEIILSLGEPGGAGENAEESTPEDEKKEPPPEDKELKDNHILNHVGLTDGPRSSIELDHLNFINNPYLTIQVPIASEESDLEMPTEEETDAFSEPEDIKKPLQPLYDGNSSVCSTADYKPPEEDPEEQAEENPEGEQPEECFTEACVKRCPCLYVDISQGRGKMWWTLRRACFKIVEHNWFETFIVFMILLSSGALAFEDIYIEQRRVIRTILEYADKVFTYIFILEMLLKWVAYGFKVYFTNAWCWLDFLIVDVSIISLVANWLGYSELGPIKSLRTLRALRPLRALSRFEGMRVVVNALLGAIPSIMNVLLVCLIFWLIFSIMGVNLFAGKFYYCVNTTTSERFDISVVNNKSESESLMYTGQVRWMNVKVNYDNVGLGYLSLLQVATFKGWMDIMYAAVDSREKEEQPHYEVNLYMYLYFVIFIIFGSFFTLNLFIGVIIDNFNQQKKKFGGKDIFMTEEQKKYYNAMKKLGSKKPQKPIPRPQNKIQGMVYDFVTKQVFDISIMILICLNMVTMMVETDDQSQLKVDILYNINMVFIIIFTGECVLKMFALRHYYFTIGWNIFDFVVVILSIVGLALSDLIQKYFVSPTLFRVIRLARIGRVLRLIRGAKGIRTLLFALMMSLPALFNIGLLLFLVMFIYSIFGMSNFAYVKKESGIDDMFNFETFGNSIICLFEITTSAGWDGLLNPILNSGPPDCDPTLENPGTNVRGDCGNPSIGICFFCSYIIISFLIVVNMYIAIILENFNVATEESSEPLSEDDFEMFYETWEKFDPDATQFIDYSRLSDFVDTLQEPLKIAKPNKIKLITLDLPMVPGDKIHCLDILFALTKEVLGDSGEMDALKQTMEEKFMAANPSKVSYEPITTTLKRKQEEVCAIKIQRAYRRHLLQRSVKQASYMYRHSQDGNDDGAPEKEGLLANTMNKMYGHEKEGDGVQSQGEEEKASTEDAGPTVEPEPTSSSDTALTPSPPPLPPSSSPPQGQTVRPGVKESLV

Sequence of rNaV1.4 (Rattus norvegicus, UniProt P15390, F1579A) (P15390 whole entry F1579A): as the sequence (P15390 whole entry) above, with F1579A counted along it

Nc1nc2ccc(OC(F)(F)F)cc2s1 [riluzole]
IC50 (rNaV1.4 [1]): 114 ± 20 µM | IC50 (rNaV1.4 [2]): 3.98 ± 1.32 µM
